How the values were obtained:
NOMO1 = assay: AUC of viability dose-response curve (% viability x log10 dose units); higher = less sensitive; conditions: 48 h
Procedure, shortened: (§1)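 Area under the curve was integrated by trapezoidal rule from a log-logistic fit of normalised viability, with curves exceeding full viability scaled and quality-control failures removed. The fit had four parameters over log10 doses. Viability came from CellTiter-Glo One luminescence, normalised per plate to DMSO and cell-free wells, after leukemia cells adapted to each medium (500 or 1000 cells/well, 1536-well plates) were exposed to library compounds in DMSO for 48 h at 37°C. The 11 threefold doses ran from 47 μM to 0.79 nM.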

P12-Ichikawa = assay: as above; conditions: 48 h
Procedure, shortened: as §1

[1] = RPMI 5 mM glucose + 10% dialyzed FBS

Structure (SMILES)	AUC of viability dose-response curve (NOMO1; HPLM + 10% dialyzed FBS)	AUC of viability dose-response curve (NOMO1; RPMI 5 mM glucose + 10% FBS)	AUC of viability dose-response curve (NOMO1; [1])	AUC of viability dose-response curve (P12-Ichikawa; HPLM + 10% dialyzed FBS)	AUC of viability dose-response curve (P12-Ichikawa; RPMI 5 mM glucose + 10% FBS)	AUC of viability dose-response curve (P12-Ichikawa; [1])
CC/1=C/N([C@@H]2C[C@@H](O)[C@H](CO)O2)C(=O)NC1=O	453	408	413	388	353	338
C[C@H]1CN(C[C@@H](C)O1)CC(=O)NC2=CC=C3SC4=C(CC3=C2)C=CC=C4\C5=C\C(=O)\C=C(/O5)N6CCOCC6	397	439	433			
Cc1nc(Nc2ncc(C(=O)Nc3c(C)cccc3Cl)s2)cc(N2CCN(CCO)CC2)n1	448	461	447	358	396	398
COc1cc2nccc(Oc3ccc(NC(=O)Nc4ccc(F)cc4F)c(F)c3)c2cc1OC	413	414	429	419	401	395
C=C(C)[C@@H]1CC[C@]2(C)CC[C@]3(C)[C@H](CC[C@@H]4[C@@]5(C)CC[C@H](O)C(C)(C)[C@@H]5CC[C@]43C)[C@@H]12	444	466	446	458	467	459
COc1cc2nccc(Oc3ccc(NC(=O)Nc4cc(C)on4)c(Cl)c3)c2cc1OC	471	449	467	458	453	455
O=C1Nc2ccccc2/C1=C1\Nc2ccccc2C1=O	448	447	442	459	467	471
O=C1\C=C(/OC2=C1C=CC=C2C3=CC=CC=C3)N4CCOCC4	410	392	390	432	393	397
COc1cc(N2CCC(O)CC2)ccc1Nc1cc(Nc2ccccc2[S+](=O)([O-])C(C)C)c2cc[nH]c2n1	331	414	404	411	392	400
COc1cc2nccc(Oc3ccc(NC(=O)C4(C(=O)Nc5ccc(F)cc5)CC4)cc3)c2cc1OC	433	457	442	436	440	427
CN(N=O)C(=O)N[C@H]1C(O)OC(CO)[C@@H](O)[C@@H]1O (some centres undefined)	428	391	375	397	383	368
CC[C@]1(O)C[C@H]2CN(CCC3=C([NH]C4=C3C=CC=C4)[C@@](C2)(C(=O)OC)C5=CC6=C(C=C5OC)N(C=O)[C@H]7[C@](O)([C@H](OC(C)=O)[C@]8(CC)\C=C/C[N@@]9CC[C@]67[C@H]89)C(=O)OC)C1	272	239	264	185	180	224

Source: the supplement of paper PMC11451515
